Here are results for two compounds from ChEMBL document CHEMBL4270505, “Towards antibody-drug conjugates and prodrug strategies with extracellular stimuli-responsive drug delivery in the tumor microenvironment for cancer therapy” (Eur J Med Chem, 2017).

The IC50 is the concentration at which inhibition is half-maximal.

Assay [1] in a line: Antitumor activity against human CL1-5 cells xenografted in mouse assessed as disease cure rate. Type of assay: functional.
Assay [2] concerns HT-29. As to the kind of experiment: Cytotoxicity in human HT-29 cells assessed as reduction in cell viability. The assay is classed as functional, cell-based.
The subject of assay [3] is HT-29. Briefly: Potency index, ratio of IC50 for paclitaxel to IC50 for test compound for cytotoxicity in human HT-29 cells. The assay is classed as functional.

For `Nc1cccc2nc3c(cc12)Cn1c-3cc2c(c1=O)COC(=O)[C@]2(O)CC(=O)OCc1ccc(O[C@@H]2O[C@H](C(=O)O)[C@@H](O)[C@H](O)[C@H]2O)c([N+](=O)[O-])c1`, in assay [1], the Activity is listed as 70 - 85%.
With `CC(=O)O[C@H]1C(=O)[C@@]2(C)[C@H]([C@H](OC(=O)c3ccccc3)[C@]3(O)C[C@H](OC(=O)[C@H](OC(=O)OCCN(C)C(=O)OCc4ccc(O[C@@H]5O[C@H](C(=O)O)[C@@H](O)[C@H](O)[C@H]5O)cc4)[C@@H](NC(=O)c4ccccc4)c4ccccc4)C(C)=C1C3(C)C)[C@]1(OC(C)=O)CO[C@@H]1C[C@@H]2O`, the IC50 in the assay with HT-29 [2] was found to be 26 nM. Also, the “Ratio IC50” value in the assay with HT-29 [3] was 164.
